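Briefly, cells in 96-well plates were exposed to five compound concentrations for 48 h, and endpoints were estimated by linear interpolation. Here, GI50 denotes the concentration required for 50% inhibition of growth.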 Active and inactive are the calls of the source. No stated cut-off is given here; in the data, active = GI50 up to about 1.1 µM and inactive = higher.
Experiments:
Experiment in all cases: NCI anticancer screen, dose series, 48 h
[1] = system: COLO 205
[2] = system: NCI-H226
[3] = system: HOP-62
[4] = system: NCI-H522
[5] = system: LOX IMVI
[6] = system: SK-MEL-2
[7] = system: OVCAR-4
[8] = system: EKVX
[9] = system: CCRF-CEM
[10] = system: OVCAR-8
[11] = system: SF-268
[12] = system: K562
[13] = system: HCT-116
[14] = system: Malme-3M
[15] = system: HCC 2998
[16] = system: SNB-19

Compound	GI50 [1]	GI50 [2]	GI50 [3]	GI50 [4]	GI50 [5]	GI50 [6]	GI50 [7]	GI50 [8]	GI50 [9]	GI50 [10]	GI50 [11]	GI50 [12]	GI50 [13]	GI50 [14]	GI50 [15]	GI50 [16]
COC(=O)CCC(=O)N1Cc2cc(C)ccc2N(C(=O)CCC(=O)OC)Cc2cc(C)ccc21	> 100 µM (inactive)	> 100 µM (inactive)	> 100 µM (inactive)	> 100 µM (inactive)	> 100 µM (inactive)	> 100 µM (inactive)	> 100 µM (inactive)	> 100 µM (inactive)	> 100 µM (inactive)	> 100 µM (inactive)	> 100 µM (inactive)	> 100 µM (inactive)	> 100 µM (inactive)	–	–	–
Fc1cccc(C2SCc3nc4ccccc4n32)c1 (stereo not drawn)	71.4 µM (inactive)	41.1 µM (inactive)	–	20.2 µM (inactive)	–	42.3 µM (inactive)	–	32.4 µM (inactive)	41.2 µM (inactive)	66.5 µM (inactive)	75.3 µM (inactive)	28.5 µM (inactive)	45.9 µM (inactive)	36.4 µM (inactive)	55.7 µM (inactive)	75.5 µM (inactive)
Cc1ccc2sc3cc(=O)cc(C)c-3nc2c1	61.9 µM (inactive)	> 100 µM (inactive)	65 µM (inactive)	20.3 µM (inactive)	–	> 100 µM (inactive)	14.2 µM (inactive)	38.6 µM (inactive)	17.8 µM (inactive)	37.9 µM (inactive)	47.2 µM (inactive)	18.6 µM (inactive)	80.2 µM (inactive)	–	50.4 µM (inactive)	40.8 µM (inactive)
Cc1[nH]c2ccccc2c1/C=C/c1c(C)[nH]c2ccccc12	–	> 100 µM (inactive)	> 100 µM (inactive)	–	–	> 100 µM (inactive)	> 100 µM (inactive)	> 100 µM (inactive)	20.7 µM (inactive)	> 100 µM (inactive)	–	> 100 µM (inactive)	> 100 µM (inactive)	> 100 µM (inactive)	> 100 µM (inactive)	–
Cc1ccc(S(=O)(=O)N/N=C/C(C)C)cc1	> 100 µM (inactive)	–	> 100 µM (inactive)	–	> 100 µM (inactive)	> 100 µM (inactive)	> 100 µM (inactive)	> 100 µM (inactive)	> 100 µM (inactive)	> 100 µM (inactive)	> 100 µM (inactive)	> 100 µM (inactive)	> 100 µM (inactive)	> 100 µM (inactive)	> 100 µM (inactive)	> 100 µM (inactive)
Cc1cccc(-c2nc3c(C(=O)NCCN(C)C)cccc3[nH]2)c1	0.363 µM (active)	1.85 µM (inactive)	1.72 µM (inactive)	–	0.708 µM (active)	1.86 µM (inactive)	0.809 µM (active)	1.46 µM (inactive)	1.02 µM (active)	0.708 µM (active)	1.58 µM (inactive)	0.863 µM (active)	0.329 µM (active)	–	1 µM (active)	1.98 µM (inactive)
COc1ccc(-c2cc(C(=O)Nc3cc(C(F)(F)F)cc(C(F)(F)F)c3)c3ccccc3n2)cc1	13.4 µM (inactive)	17.1 µM (inactive)	12.8 µM (inactive)	–	13.4 µM (inactive)	12.9 µM (inactive)	8.3 µM (inactive)	9.06 µM (inactive)	7.6 µM (inactive)	4.27 µM (inactive)	14.4 µM (inactive)	4.89 µM (inactive)	6.19 µM (inactive)	17.9 µM (inactive)	11.4 µM (inactive)	–
O=C1c2ccccc2C(=O)N1C/C=N/NS(=O)(=O)c1ccc(Br)cc1	> 100 µM (inactive)	> 100 µM (inactive)	> 100 µM (inactive)	> 100 µM (inactive)	–	> 100 µM (inactive)	> 100 µM (inactive)	> 100 µM (inactive)	> 100 µM (inactive)	> 100 µM (inactive)	> 100 µM (inactive)	> 100 µM (inactive)	> 100 µM (inactive)	> 100 µM (inactive)	> 100 µM (inactive)	> 100 µM (inactive)

Reference: ChEMBL document CHEMBL1201862, “PubChem BioAssay data set” (2004)
